Consider 3 compounds from patent US20200171132A1, “METHODS OF INHIBITING FUNGAL CERAMIDE SYNTHASE FOR TREATMENT OF CRYPTOCOCCUS NEOFORMANS INFECTION” (The Research Foundation for the State University of New York, priority 2017, published 2020).

The target in assay [1] is T1, human Cer1 (Homo sapiens, UniProt P27544).
T1 sequence (P27544 1-350): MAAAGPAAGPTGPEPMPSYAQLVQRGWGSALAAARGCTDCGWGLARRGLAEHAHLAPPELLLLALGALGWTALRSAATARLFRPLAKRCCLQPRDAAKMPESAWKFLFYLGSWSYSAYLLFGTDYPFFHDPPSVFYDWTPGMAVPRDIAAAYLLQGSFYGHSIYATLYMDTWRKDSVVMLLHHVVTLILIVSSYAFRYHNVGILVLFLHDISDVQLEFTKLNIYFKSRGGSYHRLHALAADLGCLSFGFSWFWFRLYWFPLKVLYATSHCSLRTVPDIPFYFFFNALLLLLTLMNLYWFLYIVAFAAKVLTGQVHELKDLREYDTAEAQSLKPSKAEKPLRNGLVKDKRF
The note with it: cited from earlier work.

Assay [2] deals with Cer1. The note with it: cited from earlier work.
For assay [3], the system named is GAL7::IPC1. Put plainly: In vitro growth at 37° C., 5% CO2, pH 4.0. In kind it is cell-based, Cryptococcus neoformans. As to conditions: supplementation.
In assay [4] the test system is Pma1. Put plainly: Glucose dependent medium acidification (plasma membrane H+-ATPase activity). It counts as cell-based, Cryptococcus neoformans. On the procedure:
Glucose-dependent medium acidification was monitored by a modification of a procedure described previously (Perlin, Brown et al. 1988, Soteropoulos, Vaz et al. 2000). Cultures of Cn strain WT, Δcer1, Δcer1+CER1, Δgcs1 were grown to mid-log Phase in YPD. The next day, these cells were transferred to DMEM at pH 4.0 and allowed to grow under shaking conditions for 24 hours. These cells were then harvested and washed using 100 mM KCl, pH 5.0. These pellets were then resuspended in 10 ml KCl, pH 5.0 and incubated under shaking condition at 30° C. These samples were then stored at 4° C. overnight prior to use. For the assay, cells were concentrated to a final A590 of approximately 2.0. 20 μl cells along with 155 μl of bromophenolblue (50 μg/ml) in 100 mM KCl, pH 5.0. 20 μl 20% (w/v) glucose was added to initiate the reaction. Medium acidification was monitored at 590 nm over a period of 5 hours (data point every 3 mins) in a microplate reader (SpectraMax M5).

In the case of `CCCCCC[C@@H](C)C1=C(O)C(=O)[C@@H]2[C@H](O)[C@H](C)C[C@H](O)[C@H]2[C@]1(C)C(=O)/C=C\O` [Australifungin], the “targets human Cer1” value in assay [1] is “targets human Cer1”. Also, the “known Cer1 inhibitor” value in assay [2] is listed as “known Cer1 inhibitor”.
Take `CCCCCCCCCCCCC/C=C/[C@@H](O)[C@H](CO)NC(=O)CCCCCCCCCCCCCCCCC` [C18 ceramide]: in assay [3], the “growth defect of GAL7::IPC1 in acidic conditions” value was “compensated”. Also, the Pma1 activity entry in assay [4] (AbA treated Δgcs1 cells, supplementation) is reported as “increases”. For the same compound, the Pma1 efficiency entry in assay [4] (Δcer1 cells upon supplementation) is recorded as “increase”.
For Aureobaisdin A [AbA], the Pma1 activity entry in assay [4] (Δgcs1 strain upon treatment) is reported as “reduced”.
